Experimental data reported in patent publication US20080045486A1, “OCULAR ADMINISTRATION OF TESTOSTERONE” (priority 2006, published 2008).

Experiments:
[1] = Safety and pharmacokinetics study of testosterone ophthalmic solutions for up to 14 days in postmenopausal women; format: in vivo, human; details: for equivalent absorbed daily dose: assuming production rate 0.125 mg/day; for median Cmax of serum testosterone concentration: each eye twice daily, day 13, healthy postmenopausal women
Procedure: A clinical study entitled “A Single-Center, Double Masked, Parallel, Dose-Ranging, Vehicle Controlled Study Evaluating the Safety and Pharmacokinetics of Testosterone (0.03%, 0.1%, 0.3%, and 0.6%) Ophthalmic Solutions for up to 14 Days in Postmenopausal Women” was conducted to determine the effectiveness of the ocular administration of testosterone. This study was a randomized, single-center, double-masked, parallel-group study of five treatment groups, with each subject acting as their own baseline control for serum testosterone concentrations. Subjects received testosterone ophthalmic solution 0.03%, 0.1%, 0.3%, 0.6% or vehicle ophthalmic solution in each eye twice daily for 14 days. Each subject had blood withdrawn for the measurement of serum testosterone concentrations. On day 13, blood samples were taken prior to the morning dose (time 0), and at 5, 10, 20, 30, and 45 minutes, 1, 2, 4, 6, 8, and 12 hours post-dose. On day −1, blood samples were taken at the same time as day 13 to evaluate the baseline serum testosterone levels. On days −6, 7, 14, and 27, one blood sample was taken at the same time as day 13 predose draw to evaluate the trough serum testosterone levels (there were no dosing on days −6, −1, and 27). […] Serum testosterone concentrations were assayed using a validated double antibody radioimmunoassay method with a lower limit of quantitation (LLOQ) at 29 pg/mL or 2.9 ng/dL.

[2] = 16-week dose-ranging study of testosterone ophthalmic solutions in patients with keratoconjunctivitis sicca, serum pharmacokinetics; format: in vivo, human; details: for increase of serum testosterone concentration over the endogenous baseline / concentration at 10 min: 10 minutes after dosing; for increase of serum testosterone concentration over the endogenous baseline: male patients; for concentration at 10 min: human, serum, other: ophthalmic solution, eye drop, one drop twice daily, female patients, baseline approximately 20 ng/dL
Procedure: Another clinical study entitled “A Multi-Center, Parallel, Randomized, Double-Masked, Vehicle-Controlled, Dose-Ranging Study to Evaluate the Safety, Tolerability and Efficacy of Testosterone 0.01%, 0.1%, and 0.3% Ophthalmic Solutions Administered Twice Daily for 16 weeks in Patients with Keratoconjunctivitis Sicca (KCS)” was conducted to determine the effectiveness of the ocular administration of testosterone in both women and men. This study was a randomized, multi-center, double-masked, parallel-group study of three treatment groups and one vehicle group. Patients were randomized to either 0.01%, 0.1%, 0.3% testosterone or vehicle of 0.3% testosterone ophthalmic solution. In the treatment phase, patients were instructed to instill one drop of the randomly assigned masked treatment twice daily (in the morning upon waking and before bedtime) for 16 weeks. Data from 135 patients (100 females and 35 males) were included in the pharmacokinetic data analysis. A single blood sample (20 mL) was taken from each patient pre-dose and at 10 minutes post dose on day 0, weeks 1, 4, 8, 12, and 16 for the determination of serum testosterone, dihydrotestosterone, 3-alpha-androstanediol glucuronide and sex hormone binding globulin concentrations. Serum concentrations of testosterone and dihydrotestosterone were determined by a validated gas chromatography-mass spectrometry (GC-MS) method with a quantitation range for DHT of 0.1 to 100 ng/dL and for testosterone of 1.0 to 1000 ng/dL. Serum concentrations of 3-alpha-androstanediol-glucuronide were quantitated by a validated radioimmunoassay method with a range of quantitation from 0.800 to 100 ng/mL, and serum concentrations of sex hormone binding globulin were determined using a validated two-site immunoradiometric assay (IRMA) method with a range of quantitation of 5 to 320 nmol/L for a 1:100 diluted sample.

C[C@]12CC[C@H]3[C@@H](CCC4=CC(=O)CC[C@@]43C)[C@@H]1CC[C@@H]2O [testosterone, (17β)-17-Hydroxyandrost-4-en-3-one]
equivalent absorbed daily dose ([1]; 0.03% formulation BID both eyes): 0.024 mg | average increase of serum testosterone level ([1]; 0.03% formulation, 50 μL BID to both eyes (0.06 mg/day)): 3.8 ng/dL | median Cmax of serum testosterone concentration ([1]; 0.03% ophthalmic solution): 93.5 ng/dL | equivalent absorbed daily dose ([1]; 0.1% formulation BID both eyes): 0.094 mg | average increase of serum testosterone level ([1]; 0.1% formulation, 50 μL BID to both eyes (0.2 mg/day)): 15 ng/dL | median Cmax of serum testosterone concentration ([1]; 0.1% ophthalmic solution): 193 ng/dL | equivalent absorbed daily dose ([1]; 0.3% formulation BID both eyes): 0.15 mg | average increase of serum testosterone level ([1]; 0.3% formulation, 50 μL BID to both eyes (0.6 mg/day)): 24 ng/dL | median Cmax of serum testosterone concentration ([1]; 0.3% ophthalmic solution): 237 ng/dL | equivalent absorbed daily dose ([1]; 0.6% formulation BID both eyes): 0.31 mg | average increase of serum testosterone level ([1]; 0.6% formulation, 50 μL BID to both eyes (1.2 mg/day)): 49 ng/dL | median Cmax of serum testosterone concentration ([1]; 0.6% ophthalmic solution): 457 ng/dL | time for serum testosterone concentration to return to the baseline level ([1]; after dosing of testosterone ophthalmic solution): 12 h | fraction of the peak serum level gone ([1]; in 2 hours after ophthalmical dosing): about 90% | increase of serum testosterone concentration over the endogenous baseline ([2]; 0.1% solution): 13% | increase of serum testosterone concentration over the endogenous baseline ([2]; 0.3% solution): 36% | safety concern from serum pharmacokinetic data ([2]; 4 month dosing period, 0.01%, 0.1% and 0.3% dose levels): did not indicate a safety concern | concentration at 10 min ([2]; 0.01% solution): 0.35 ng/mL | concentration at 10 min ([2]; 0.1% solution): 2 ng/mL | concentration at 10 min ([2]; 0.3% solution): 3.5 ng/mL
